Results taken from PubChem BioAssay (NCI).
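Five compound concentrations were applied to cells in 96-well plates for 48 hours; endpoints were derived by simple linear interpolation of the resulting dose-response curve. TGI: concentration producing complete growth inhibition.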

Legend:
Assay in all cases: NCI tumour cell line growth inhibition, 48 h
HCT-15 colon = system: HCT-15 colon
SK-OV-3 ovarian = system: SK-OV-3 ovarian
SNB-78 CNS = system: SNB-78 CNS
UACC-62 melanoma = system: UACC-62 melanoma
KM20L2 colon = system: KM20L2 colon
SK-MEL-28 melanoma = system: SK-MEL-28 melanoma
RXF 393 renal = system: RXF 393 renal
P388/ADR leukemia = system: P388/ADR leukemia
MOLT-4 leukemia = system: MOLT-4 leukemia
K-562 leukemia = system: K-562 leukemia
DMS 114 small cell lung = system: DMS 114 small cell lung
XF 498 CNS = system: XF 498 CNS
MCF7 breast = system: MCF7 breast
HCC-2998 colon = system: HCC-2998 colon
SF-539 CNS = system: SF-539 CNS
HOP-92 NSCLC = system: HOP-92 NSCLC
SN12K1 renal = system: SN12K1 renal
NCI-H226 lung = system: NCI-H226 lung
MALME-3M melanoma = system: MALME-3M melanoma
NCI-H460 lung = system: NCI-H460 lung
NCI-H522 lung = system: NCI-H522 lung
M19-MEL melanoma = system: M19-MEL melanoma
RPMI-8226 leukemia = system: RPMI-8226 leukemia
HL-60(TB) leukemia = system: HL-60(TB) leukemia
NCI-H23 lung = system: NCI-H23 lung
OVCAR-5 ovarian = system: OVCAR-5 ovarian
UACC-257 melanoma = system: UACC-257 melanoma
SW-620 colon = system: SW-620 colon
HOP-62 NSCLC = system: HOP-62 NSCLC
IGROV1 ovarian = system: IGROV1 ovarian
NCI/ADR-RES ovarian = system: NCI/ADR-RES ovarian
HCT-116 colon = system: HCT-116 colon
A549 NSCLC = system: A549 NSCLC
OVCAR-8 ovarian = system: OVCAR-8 ovarian
SF-268 CNS = system: SF-268 CNS
P388 leukemia = system: P388 leukemia
U251 CNS = system: U251 CNS
SN12C renal = system: SN12C renal
KM12 colon = system: KM12 colon
SNB-75 CNS = system: SNB-75 CNS
SNB-19 CNS = system: SNB-19 CNS
SF-295 CNS = system: SF-295 CNS
SK-MEL-2 melanoma = system: SK-MEL-2 melanoma
A498 renal = system: A498 renal
LOX IMVI melanoma = system: LOX IMVI melanoma
OVCAR-4 ovarian = system: OVCAR-4 ovarian
HT29 colon = system: HT29 colon
CAKI-1 renal = system: CAKI-1 renal
CCRF-CEM leukemia = system: CCRF-CEM leukemia
DMS 273 small cell lung = system: DMS 273 small cell lung
UO-31 renal = system: UO-31 renal
HOP-18 NSCLC = system: HOP-18 NSCLC
OVCAR-3 ovarian = system: OVCAR-3 ovarian
EKVX NSCLC = system: EKVX NSCLC
DLD-1 colon = system: DLD-1 colon
COLO 205 colon = system: COLO 205 colon
SK-MEL-5 melanoma = system: SK-MEL-5 melanoma

For `CC1(C)CC2(CC(C)(C)N1O)NC(=O)OC2=O`, which TGI (HCT-15 colon) is on record?
Its TGI is > 100 µM.

And the TGI (SK-OV-3 ovarian)?
Its TGI is > 100 µM.

What about the TGI (SNB-78 CNS) of the same compound?
The TGI was > 100 µM.

And the TGI (UACC-62 melanoma)?
The TGI was > 100 µM.

And the TGI (KM20L2 colon)?
The TGI was > 100 µM.

And the TGI (SK-MEL-28 melanoma)?
Its TGI is > 100 µM.

What about the TGI (RXF 393 renal) of the same compound?
Its TGI is > 100 µM.

What about the TGI (P388/ADR leukemia) of the same compound?
Its TGI is > 100 µM.

What about the TGI (MOLT-4 leukemia) of the same compound?
The TGI was > 100 µM.

And the TGI (K-562 leukemia)?
The TGI was > 100 µM.

What about the TGI (DMS 114 small cell lung) of the same compound?
The TGI was > 100 µM.

And the TGI (XF 498 CNS)?
The TGI was > 100 µM.

And the TGI (MCF7 breast)?
Its TGI is > 100 µM.

What about the TGI (HCC-2998 colon) of the same compound?
The TGI was > 100 µM.

And the TGI (SF-539 CNS)?
The TGI was > 100 µM.

What about the TGI (HOP-92 NSCLC) of the same compound?
The TGI was > 100 µM.

And the TGI (SN12K1 renal)?
Its TGI is > 100 µM.

And the TGI (NCI-H226 lung)?
The TGI was > 100 µM.

And the TGI (MALME-3M melanoma)?
The TGI was > 100 µM.

What about the TGI (NCI-H460 lung) of the same compound?
Its TGI is > 31.6 µM.

What about the TGI (NCI-H522 lung) of the same compound?
The TGI was > 100 µM.

And the TGI (M19-MEL melanoma)?
Its TGI is > 100 µM.

What about the TGI (RPMI-8226 leukemia) of the same compound?
Its TGI is > 100 µM.

And the TGI (HL-60(TB) leukemia)?
Its TGI is > 100 µM.

What about the TGI (NCI-H23 lung) of the same compound?
Its TGI is > 100 µM.

And the TGI (OVCAR-5 ovarian)?
The TGI was > 100 µM.

And the TGI (UACC-257 melanoma)?
Its TGI is > 100 µM.

What about the TGI (SW-620 colon) of the same compound?
The TGI was > 100 µM.

And the TGI (HOP-62 NSCLC)?
The TGI was > 100 µM.

And the TGI (IGROV1 ovarian)?
The TGI was > 100 µM.

What about the TGI (NCI/ADR-RES ovarian) of the same compound?
The TGI was > 100 µM.

And the TGI (HCT-116 colon)?
Its TGI is > 100 µM.

And the TGI (A549 NSCLC)?
Its TGI is > 100 µM.

And the TGI (OVCAR-8 ovarian)?
Its TGI is > 100 µM.

And the TGI (SF-268 CNS)?
Its TGI is > 100 µM.

What about the TGI (P388 leukemia) of the same compound?
Its TGI is > 100 µM.

What about the TGI (U251 CNS) of the same compound?
The TGI was > 100 µM.

And the TGI (SN12C renal)?
Its TGI is > 100 µM.

What about the TGI (KM12 colon) of the same compound?
Its TGI is > 100 µM.

And the TGI (SNB-75 CNS)?
Its TGI is > 100 µM.

What about the TGI (SNB-19 CNS) of the same compound?
Its TGI is > 100 µM.

What about the TGI (SF-295 CNS) of the same compound?
Its TGI is > 100 µM.

What about the TGI (SK-MEL-2 melanoma) of the same compound?
Its TGI is > 100 µM.

What about the TGI (A498 renal) of the same compound?
Its TGI is > 100 µM.

And the TGI (LOX IMVI melanoma)?
The TGI was > 100 µM.

And the TGI (OVCAR-4 ovarian)?
The TGI was > 100 µM.

And the TGI (HT29 colon)?
Its TGI is > 100 µM.

And the TGI (CAKI-1 renal)?
The TGI was > 100 µM.

What about the TGI (CCRF-CEM leukemia) of the same compound?
The TGI was > 100 µM.

And the TGI (DMS 273 small cell lung)?
The TGI was > 100 µM.

And the TGI (UO-31 renal)?
The TGI was > 100 µM.

And the TGI (HOP-18 NSCLC)?
The TGI was > 100 µM.

And the TGI (OVCAR-3 ovarian)?
Its TGI is > 100 µM.

What about the TGI (EKVX NSCLC) of the same compound?
Its TGI is > 100 µM.

And the TGI (DLD-1 colon)?
Its TGI is > 100 µM.

And the TGI (COLO 205 colon)?
The TGI was > 100 µM.

And the TGI (SK-MEL-5 melanoma)?
The TGI was > 100 µM.
